Experimental data published in US11434239B2, “Aza-dihydro-acridone derivatives” (Artax Biopharma Inc., priority 2017, dated 2022).
Like-named read-outs stand apart in the source and are kept apart here.

Legend:
hERG = biological target: T1, hERG (Homo sapiens, UniProt Q12809); assay: hERG inhibition, IKr current, patch clamp in HEK cells stably transfected with the hERG clone; type: cell-based; settings: for inhibition at 1 µM / inhibition at 3 µM / inhibition at 10 µM / inhibition at 30 µM: human, HEK cells stably transfected with hERG; for inhibition at 1 µM: pH 7.4, 1 μM; for inhibition at 3 µM: pH 7.4, 3 μM; for inhibition at 10 µM: pH 7.4, 10 μM; for inhibition at 30 µM: pH 7.4, 30 μM; for IC50: test concentrations 1, 3, 10 and 30 μM, read-out: hERG IC 50 (IKr current)
T1 construct: expressed in transfected cells
T1 sequence (Q12809 whole entry): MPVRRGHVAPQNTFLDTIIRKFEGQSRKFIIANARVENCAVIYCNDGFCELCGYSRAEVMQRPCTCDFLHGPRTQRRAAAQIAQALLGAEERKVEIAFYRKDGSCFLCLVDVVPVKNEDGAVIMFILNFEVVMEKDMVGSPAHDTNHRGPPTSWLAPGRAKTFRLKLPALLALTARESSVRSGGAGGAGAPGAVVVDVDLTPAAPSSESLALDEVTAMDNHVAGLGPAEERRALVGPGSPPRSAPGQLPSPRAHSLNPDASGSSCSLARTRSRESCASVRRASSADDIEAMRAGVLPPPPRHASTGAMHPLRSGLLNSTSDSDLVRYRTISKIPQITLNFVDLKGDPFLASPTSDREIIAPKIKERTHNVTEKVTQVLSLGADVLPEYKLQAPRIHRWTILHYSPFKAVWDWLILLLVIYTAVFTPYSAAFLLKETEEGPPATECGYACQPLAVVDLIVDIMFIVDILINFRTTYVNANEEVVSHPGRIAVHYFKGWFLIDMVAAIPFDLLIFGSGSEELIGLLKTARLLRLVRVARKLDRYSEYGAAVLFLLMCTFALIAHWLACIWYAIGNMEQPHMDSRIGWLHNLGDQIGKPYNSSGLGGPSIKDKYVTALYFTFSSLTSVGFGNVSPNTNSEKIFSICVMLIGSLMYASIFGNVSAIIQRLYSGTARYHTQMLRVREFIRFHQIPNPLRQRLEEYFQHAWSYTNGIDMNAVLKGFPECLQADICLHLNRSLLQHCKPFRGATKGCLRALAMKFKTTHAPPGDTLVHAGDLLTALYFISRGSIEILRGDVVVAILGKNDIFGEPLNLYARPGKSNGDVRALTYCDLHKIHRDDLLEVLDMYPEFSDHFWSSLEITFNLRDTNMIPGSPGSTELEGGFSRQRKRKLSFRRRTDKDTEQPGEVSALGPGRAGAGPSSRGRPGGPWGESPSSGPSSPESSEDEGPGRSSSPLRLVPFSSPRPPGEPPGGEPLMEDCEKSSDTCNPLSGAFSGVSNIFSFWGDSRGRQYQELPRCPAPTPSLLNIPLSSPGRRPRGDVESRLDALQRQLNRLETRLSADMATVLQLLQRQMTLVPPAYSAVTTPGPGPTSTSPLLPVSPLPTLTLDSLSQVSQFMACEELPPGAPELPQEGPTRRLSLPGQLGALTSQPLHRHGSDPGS
Experimental: HEK cells stably transfected with the hERG clone are maintained at 37±2° C. in a 5% CO2 incubator. The cells are initially revived and grown in DMEM/F12+GlutaMAX-I medium supplemented with 9% fetal bovine serum (FBS) and antibiotics (Penicillin 100 IU/mL Streptomycin 100 μg/mL) (complete medium). Furthermore, the cells are continuously maintained and passaged in complete media in addition to the appropriate concentration of selection antibiotic (Geneticin (G418) 200 μg/mL) (Selection media). The cells are sub cultured every 2-3 days and medium is changed with complete medium at least a day before the experiment.
The cells are harvested on the day of experiment, dislodged and suspended in sterile filtered external solution (NaCl 140 mM, KCl 4 mM, MgCl2 1 mM, CaCl2 2 mM, D-Glucose monohydrate 5 mM, Hepes/NaOH 10 mM, pH 7.4, Osmolarity:298+/−5 mOsmol).
The NPC®-1 chip of the Port-a-Patch® is filled with 5 μL of internal solution (KCl 50 mM, NaCl 10 mM, KFl 60 mM, EGTA 20 mM, Hepes/KOH 10 mM, pH 7.2, Osmolarity: 285+/−5 mOsmol) and it is screwed onto the chip holder. The Faraday cage is then fixed on the chip holder, such that the external electrode is placed near to the chip aperture. 5 μL of external solution is added to the center of the aperture so that the external electrode is also in contact with the solution.
The experiment is be initiated. […] The suction automatically attracts a cell to the aperture, resulting in an increase in the chip resistance. When the cell is captured and the set threshold for the resistance is reached, the software recognizes this increase in resistance and proceeds to the next step of the sealing procedure. 20 μL of seal enhancer solution (NaCl 80 mM, KCl 4 mM, MgCl2 10 mM, CaCl2 35 mM, Hepes (Na+salt)/HCl pH 7.4, Osmolarity: 298+/−5 mOsmol) is added 2-3 times. When the threshold resistance is reached, Patch Control automatically moves to the step of improving the seal. When the desirable resistance (Rpip) is reached, whole cell mode is attained and maintained.
Finally, hERG protocol is selected to run the experiment. The seal enhancer solution is replaced with 20 μL external solution after 2-4 rinses and then the test item is added (from lower to higher concentration) and checked for current inhibition. All the experiments are performed at ambient temperature (22-25° C.).
A schematic diagram of the Pulse protocol: Cells are stimulated every 10 seconds using the following protocol. The holding potential, sweep intervals and the depolarization/repolarization potentials are furnished in the table below.
Once the stable current is attained (at least 2-5 minutes) vehicle control is added and the current measured till the stable current is achieved. 3-5 consecutive data points from the last stable current phase are considered for further analysis. […] The system performs on-line analysis for several parameters which include functions that acquire data from traces and functions that perform calculations on the results of other functions.

[1] = Microsomal stability (intrinsic clearance study); type: in vitro ADME; settings: 0.5 mg/mL protein
Experimental: Intrinsic clearance studies are performed individually with mouse, rat and human liver microsomes at 0.5 mg/mL protein concentration. Briefly, for protein concentration 0.5 mg/mL assay, liver microsomal protein (12.5 uL), NAPDH (50 uL) and phosphate buffer (435 uL) are co-incubated (pre-incubation) in a 96-well deep well plate in an orbital incubator (10 min, 37° C.). Reactions are initiated by the addition of 2.5 uL of test item working stock solution (100 uM). Aliquots (50 uL) are withdrawn from the reaction tube at 0, 5, 10, 20 and 30 minutes and the reaction is immediately terminated by transferring to a 96 deep well plate containing 50 uL of acetonitrile. Verapamil is used as a positive control in mouse, rat and human liver microsomes. To the quenched samples internal standard is added and vortex mixed followed by centrifugation at 4000 rpm for 10 minutes and an aliquot of supernatant is taken for LC-MS/MS analysis. Samples are analyzed by a suitable fit-for-purpose multiple reaction monitoring method developed on LC-MS/MS using and API 4000 mass spectrometer to estimate the area ratio (analyte peak area/internal standard peak area).

CYP3A4 = biological target: T2, CYP3A4 (Homo sapiens, UniProt P08684); assay: CYP inhibition, microsomes; type: in vitro ADME
T2 construct: premixing appropriate volumes of buffer, microsomes and substrate; from tissue
T2 sequence (P08684 whole entry): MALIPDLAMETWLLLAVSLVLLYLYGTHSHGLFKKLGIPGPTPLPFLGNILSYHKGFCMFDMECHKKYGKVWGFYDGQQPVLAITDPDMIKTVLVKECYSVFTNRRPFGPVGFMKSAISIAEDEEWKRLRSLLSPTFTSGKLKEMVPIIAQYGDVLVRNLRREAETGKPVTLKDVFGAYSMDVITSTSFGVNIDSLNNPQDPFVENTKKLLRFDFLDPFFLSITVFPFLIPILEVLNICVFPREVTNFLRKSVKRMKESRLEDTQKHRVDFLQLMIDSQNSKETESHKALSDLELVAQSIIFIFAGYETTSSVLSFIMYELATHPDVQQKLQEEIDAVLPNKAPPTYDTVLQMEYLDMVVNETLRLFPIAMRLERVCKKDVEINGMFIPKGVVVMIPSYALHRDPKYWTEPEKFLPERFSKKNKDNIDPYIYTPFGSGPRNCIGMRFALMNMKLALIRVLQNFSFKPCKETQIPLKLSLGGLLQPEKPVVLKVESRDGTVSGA
Experimental: (§1) For each isozyme, microsomes-buffer-substrate mixture (MBS mix) is prepared by premixing appropriate volumes of buffer, microsomes and substrate. MBS mixture (179 μL) is transferred to a 96-well reaction plate. An aliquot (1 μL) is spiked from corresponding wells of Test Item stock solution plate to reaction plate. The reaction plate is pre-incubated for 5 minutes at 37° C. Reaction is initiated by the addition of 20 μL of NADPH solution. Each experiment is performed in duplicate. Reaction plate is incubated for predetermined time at 37° C. and quenched using either 200 μL of acetonitrile (for CYP2C9, CYP2D6, CYP2C19 and CYP3A4) or 200 μL of a mixture of 70:30 1% formic acid:acetonitrile (for CYP1A2).

CYP1A2 = biological target: T3, CYP1A2 (Homo sapiens, UniProt P05177); assay: CYP inhibition, microsomes; type: in vitro ADME; settings: metabolite acetaminophen
T3 construct: premixing appropriate volumes of buffer, microsomes and substrate; from tissue
T3 sequence (P05177 1-516): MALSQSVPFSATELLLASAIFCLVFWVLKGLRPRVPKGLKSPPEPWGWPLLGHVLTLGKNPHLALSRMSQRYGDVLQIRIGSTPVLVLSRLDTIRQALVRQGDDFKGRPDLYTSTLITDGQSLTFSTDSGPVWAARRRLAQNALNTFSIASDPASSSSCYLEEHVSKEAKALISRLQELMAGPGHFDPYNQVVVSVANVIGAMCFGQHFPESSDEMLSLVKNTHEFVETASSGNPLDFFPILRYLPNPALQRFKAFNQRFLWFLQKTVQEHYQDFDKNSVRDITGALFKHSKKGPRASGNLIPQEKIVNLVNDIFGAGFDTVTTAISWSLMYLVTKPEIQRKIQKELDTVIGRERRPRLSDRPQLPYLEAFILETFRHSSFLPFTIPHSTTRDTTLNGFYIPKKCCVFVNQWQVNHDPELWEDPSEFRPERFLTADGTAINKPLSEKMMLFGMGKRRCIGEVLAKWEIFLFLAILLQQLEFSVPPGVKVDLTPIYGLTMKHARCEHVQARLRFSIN
Experimental: as §1

CYP2C9 = biological target: T4, CYP2C9 (Homo sapiens, UniProt P11712); assay: CYP inhibition, microsomes; type: in vitro ADME; settings: metabolite 4-hydroxy diclofenac
T4 construct: premixing appropriate volumes of buffer, microsomes and substrate; from tissue
T4 sequence (P11712 whole entry): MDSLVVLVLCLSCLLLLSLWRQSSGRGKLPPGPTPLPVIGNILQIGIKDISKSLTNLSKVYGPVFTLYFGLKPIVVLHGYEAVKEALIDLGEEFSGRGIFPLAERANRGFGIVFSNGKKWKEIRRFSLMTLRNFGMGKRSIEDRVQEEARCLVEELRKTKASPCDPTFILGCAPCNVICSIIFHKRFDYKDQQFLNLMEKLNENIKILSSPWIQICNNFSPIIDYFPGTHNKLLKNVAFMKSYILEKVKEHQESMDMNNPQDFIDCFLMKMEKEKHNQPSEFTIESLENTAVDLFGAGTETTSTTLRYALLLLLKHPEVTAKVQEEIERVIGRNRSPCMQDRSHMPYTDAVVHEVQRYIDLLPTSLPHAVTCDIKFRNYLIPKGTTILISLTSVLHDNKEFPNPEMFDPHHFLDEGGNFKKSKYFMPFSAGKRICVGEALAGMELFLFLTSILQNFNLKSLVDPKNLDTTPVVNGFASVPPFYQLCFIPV
Experimental: as §1

CYP2D6 = biological target: T5, CYP2D6 (Homo sapiens, UniProt P10635); assay: CYP inhibition, microsomes; type: in vitro ADME; settings: metabolite dextrorphan, class symbols
T5 construct: premixing appropriate volumes of buffer, microsomes and substrate; from tissue
T5 sequence (P10635 whole entry): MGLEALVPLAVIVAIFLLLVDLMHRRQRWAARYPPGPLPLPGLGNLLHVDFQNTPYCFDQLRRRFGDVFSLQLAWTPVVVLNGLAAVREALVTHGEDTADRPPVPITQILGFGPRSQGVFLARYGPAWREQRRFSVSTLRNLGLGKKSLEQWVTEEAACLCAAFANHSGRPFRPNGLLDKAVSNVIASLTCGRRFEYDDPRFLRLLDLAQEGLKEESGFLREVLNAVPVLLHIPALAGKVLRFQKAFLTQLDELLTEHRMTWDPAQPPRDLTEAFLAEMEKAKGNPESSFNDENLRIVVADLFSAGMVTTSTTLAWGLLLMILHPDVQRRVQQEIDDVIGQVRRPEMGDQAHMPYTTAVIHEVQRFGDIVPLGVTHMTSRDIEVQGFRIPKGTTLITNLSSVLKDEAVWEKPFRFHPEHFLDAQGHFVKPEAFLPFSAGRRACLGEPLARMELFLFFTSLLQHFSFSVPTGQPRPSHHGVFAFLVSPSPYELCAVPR
Experimental: as §1

CYP2C19 = biological target: T6, CYP2C19 (Homo sapiens, UniProt P33261); assay: CYP inhibition, microsomes; type: in vitro ADME; settings: metabolite 4′-hydroxy mephenytoin, class symbols
T6 construct: premixing appropriate volumes of buffer, microsomes and substrate; from tissue
T6 sequence (P33261 whole entry): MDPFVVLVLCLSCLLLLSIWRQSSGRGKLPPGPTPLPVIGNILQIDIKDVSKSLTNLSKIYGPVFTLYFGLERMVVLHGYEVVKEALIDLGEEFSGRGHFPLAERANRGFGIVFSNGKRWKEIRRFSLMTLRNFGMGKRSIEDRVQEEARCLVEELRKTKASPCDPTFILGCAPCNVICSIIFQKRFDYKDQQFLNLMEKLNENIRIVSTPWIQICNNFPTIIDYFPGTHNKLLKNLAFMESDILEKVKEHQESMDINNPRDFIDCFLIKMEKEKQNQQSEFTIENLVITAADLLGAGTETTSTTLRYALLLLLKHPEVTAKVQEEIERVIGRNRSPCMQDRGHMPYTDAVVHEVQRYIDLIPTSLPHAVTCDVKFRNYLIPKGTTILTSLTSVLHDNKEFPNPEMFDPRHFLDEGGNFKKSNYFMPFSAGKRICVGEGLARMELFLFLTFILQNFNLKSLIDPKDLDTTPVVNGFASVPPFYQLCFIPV
Experimental: as §1

[2] = mean of two trials, read-out: Percent Inhibition Mean (%) (IKr current)
[3] = read-out: Percent Inhibition Trial I (IKr current)
[4] = read-out: Percent Inhibition Trial II (IKr current)
[5] = human liver microsomes, read-out: Microsomal stability (T½ min) Human
[6] = mouse liver microsomes, read-out: Microsomal stability (T½ min) Mouse
[7] = rat liver microsomes, read-out: Microsomal stability (T½ min) Rat
[8] = column CYP3A4^a (footnote a not given), class symbols, read-out: CYP IC50 CYP3A4^a
[9] = column CYP3A4^b (footnote b not given), class symbols, read-out: CYP IC50 CYP3A4^b

| half-life at 0.5 uM [1, 5] [min] | half-life at 0.5 uM [1, 6] [min] | half-life at 0.5 uM [1, 7] [min] | IC50 (CYP3A4; [8]) [µM] | IC50 (CYP3A4; [9]) [µM] | IC50 (CYP2D6) [µM] | IC50 (CYP2C19) [µM] | Compound | inhibition at 1 µM (hERG; [2]) [%] | inhibition at 1 µM (hERG; [3]) [%] | inhibition at 1 µM (hERG; [4]) [%] | inhibition at 3 µM (hERG; [2]) [%] | inhibition at 3 µM (hERG; [3]) [%] | inhibition at 3 µM (hERG; [4]) [%] | inhibition at 10 µM (hERG; [2]) [%] | inhibition at 10 µM (hERG; [3]) [%] | inhibition at 10 µM (hERG; [4]) [%] | inhibition at 30 µM (hERG; [2]) [%] | inhibition at 30 µM (hERG; [3]) [%] | inhibition at 30 µM (hERG; [4]) [%] | IC50 (hERG) [µM] | further results |
| --- | --- | --- | --- | --- | --- | --- | --- | --- | --- | --- | --- | --- | --- | --- | --- | --- | --- | --- | --- | --- | --- |
| ≤ 30 | 10 to 30 | 10 to 30 | > 50 | > 50 | ≤ 5 | 20 to 50 | Cn1c2c(c(=O)c3ccccc31)CN(Cc1ccccc1)CC2 [Compound I-1, 2-benzyl-5-methyl-1,2,3,4-tetrahydro(5H, 10H)-benzo(b)-1,6-naphthyridin-10-one] | 9.04 | 9.22 | 8.85 | 20.9 | 20.4 | 21.4 | 37.8 | 39.6 | 35.9 | 58.6 | 58.9 | 58.3 | 18.4 | IC50 (CYP1A2; class symbols): 20 to 50 µM; IC50 (CYP2C9; class symbols): > 50 µM |
| 10 to 30 | < 10 | < 10 | ≤ 5 | 20 to 50 | ≤ 5 | ≤ 5 | CN1c2ccccc2C(O)C2CN(Cc3ccccc3)CCC21 (centres unmarked) [Ia-1] | 11.4 | 12.9 | 9.88 | 21.9 | 21.3 | 22.5 | 28.9 | 29.4 | 28.3 | 54.4 | 54.8 | 54.1 | 25.7 | IC50 (CYP1A2; class symbols): 5 to 20 µM |
| ≤ 30 | 10 to 30 | 10 to 30 | – | – | ≤ 5 | 5 to 20 | O=c1c2c([nH]c3cc(F)c(F)cc13)CCN(Cc1ccccc1)C2 [Ib-22] | 4.5 | 5.62 | 3.37 | 15.3 | 16 | 14.6 | 21.4 | 23.8 | 19 | 30.1 | 34 | 26.2 | 47.3 | IC50 (CYP3A4; CYP3A4^a, numeric bound, read-out: CYP IC50 CYP3A4^a): > 12.5 µM; IC50 (CYP3A4; numeric bound, read-out: CYP IC50 CYP3A4^b): > 12.5 µM; IC50 (CYP1A2; numeric bound): > 12.5 µM; IC50 (CYP2C9; numeric bound): > 12.5 µM |
